The text below walks through data of US7268128B2, “1,3,5-trisubstituted-5-phenyl and 5-pyridyl pyrazolopyrimidinone derivatives having PDE7 inhibiting action” (Ausbio Pharma Co., Ltd., priority 2001, dated 2007).

Where a name gives a salt, the structure may show the parent alone. Bounds are passed on as bounds.

In this test the target is T1, PDE7 (type VII phosphodiesterase) (Homo sapiens, UniProt Q13946).
T1 construct: endogenous in cells; host or cells: MOLT-4 (ATCC CRL-1582), soluble fraction, HiTrapQ anion-exchange fraction
T1 sequence (Q13946 whole entry): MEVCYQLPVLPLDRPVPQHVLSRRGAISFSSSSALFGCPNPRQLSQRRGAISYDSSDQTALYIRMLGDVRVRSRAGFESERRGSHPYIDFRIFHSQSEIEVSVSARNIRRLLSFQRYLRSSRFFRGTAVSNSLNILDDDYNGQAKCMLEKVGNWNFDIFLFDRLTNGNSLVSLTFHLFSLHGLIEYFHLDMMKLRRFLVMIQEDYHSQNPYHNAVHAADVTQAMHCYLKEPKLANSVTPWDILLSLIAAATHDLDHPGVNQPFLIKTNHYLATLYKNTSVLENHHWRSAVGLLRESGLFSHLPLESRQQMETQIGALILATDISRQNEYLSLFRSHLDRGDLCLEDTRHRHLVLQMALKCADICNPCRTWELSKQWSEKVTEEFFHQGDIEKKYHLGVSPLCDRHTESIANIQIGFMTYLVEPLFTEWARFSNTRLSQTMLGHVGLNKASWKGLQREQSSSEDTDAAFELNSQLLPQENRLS
In words: PDE7 inhibiting activity (3H-cAMP hydrolysis, active fraction from MOLT-4 cells). The class given is biochemical. Particulars: PDE7 fraction from MOLT-4 cells, 0.064 μM cAMP, 10 μM rolipram present, 2 hours at 25° C.; read-out: IC50 values for phosphodiesterase inhibiting activities (PDE7). The gist of the method: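 Read-out: supernatant radioactivity after twice-repeated QAE-Sephadex treatment of a 2 h, 25° C reaction (3H-cAMP at 0.064 μM cAMP, 10 μM rolipram, 5′-nucleotidase, 1 mM MgCl2, pH 7.5). Enzyme is an anion-exchange-purified fraction from MOLT-4 T cells. IC50 taken as half-maximal inhibition.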
`CCOc1cc(S(=O)(=O)N2CCCN(C)CC2)ccc1-c1nc2c(C)nn(C3CCCCC3)c2c(=O)[nH]1` [Example 256, 1-Cyclohexyl-5-{2-ethoxy-4-[(4-methyl-1,4-diazepan-1-yl)sulfonyl]phenyl}-3-methyl-1,6-dihydro-7H-pyrazolo[4,3-d]pyrimidin-7-one]: the IC50 is not above 1000 nM. In the case of `CCOc1cc(S(=O)(=O)N2CCC(O)CC2)ccc1-c1nc2c(C)nn(C3CCCCC3)c2c(=O)[nH]1` [Example 257, 1-Cyclohexyl-5-{2-ethoxy-4-[(4-hydroxy-1-piperidinyl)sulfonyl]phenyl}-3-methyl-1,6-dihydro-7H-pyrazolo[4,3-d]pyrimidin-7-one], the IC50 is not above 1000 nM. The value for `COc1cc(N2CCC(O)CC2)ccc1-c1nc2c(C)nn(C3CCCCC3)c2c(=O)[nH]1` [Example 258, 1-Cyclohexyl-5-[4-(4-hydroxy-1-piperidinyl)-2-methoxyphenyl]-3-methyl-1,6-dihydro-7H-pyrazolo[4,3-d]pyrimidin-7-one] was not above 1000 nM. The value for `CCOc1cc(N2CCC(N)CC2)ccc1-c1nc2c(C)nn(C3CCCCC3)c2c(=O)[nH]1` [Example 260, 5-[4-(4-Amino-1-piperidinyl)-2-ethoxyphenyl]-1-cyclohexyl-3-methyl-1,6-dihydro-7H-pyrazolo[4,3-d]pyrimidin-7-one] was not above 10 nM. With `CCOc1cc(N2CCC(O)CC2)ccc1-c1nc2c(C)nn(C3CCCCC3)c2c(=O)[nH]1` [Example 261, 1-Cyclohexyl-5-[2-ethoxy-4-(4-hydroxy-1-piperidinyl)phenyl]-3-methyl-1,6-dihydro-7H-pyrazolo[4,3-d]pyrimidin-7-one] the figure was not above 10 nM; with `CCOc1cc(N2CCCNCC2)ccc1-c1nc2c(C)nn(C3CCCCC3)c2c(=O)[nH]1` [Example 262, 1-Cyclohexyl-5-[4-(1,4-diazepan-1-yl)-2-ethoxyphenyl]-3-methyl-1,6-dihydro-7H-pyrazolo[4,3-d]pyrimidin-7-one], not above 10 nM. Turning to `CCOc1cc(NCCOC)ccc1-c1nc2c(C)nn(C3CCCCC3)c2c(=O)[nH]1` [Example 263, 1-Cyclohexyl-5-{2-ethoxy-4-[(2-methoxyethyl)amino]phenyl}-3-methyl-1,6-dihydro-7H-pyrazolo[4,3-d]pyrimidin-7-one], the IC50 is not above 10 nM. The value for `CCOc1cc(N2CCN(C)CC2)ccc1-c1nc2c(C)nn(C3CCCCC3)c2c(=O)[nH]1` [Example 264, 1-Cyclohexyl-5-[2-ethoxy-4-(4-methyl-1-piperazinyl)phenyl]-3-methyl-1,6-dihydro-7H-pyrazolo[4,3-d]pyrimidin-7-one] was not above 1000 nM; that for `COc1cc(N2CCCNCC2)c(F)cc1-c1nc2c(C)nn(C3CCCCC3)c2c(=O)[nH]1` [Example 266, 1-Cyclohexyl-5-[4-(1,4-diazepan-1-yl)-5-fluoro-2-methoxyphenyl]-3-methyl-1,6-dihydro-7H-pyrazolo[4,3-d]pyrimidin-7-one] was not above 1000 nM; that for `COc1cc(N(C)C2CCN(C)CC2)ccc1-c1nc2c(C)nn(C3CCCCC3)c2c(=O)[nH]1` [Example 267, 1-Cyclohexyl-5-{2-methoxy-4-[methyl(1-methyl-4-piperidinyl)amino]phenyl}-3-methyl-1,6-dihydro-7H-pyrazolo[4,3-d]pyrimidin-7-one] was not above 1000 nM. With `CCOc1cc(N2CCNCC2)ccc1-c1nc2c(C)nn(C3CCCCC3)c2c(=O)[nH]1` [Example 268, 1-Cyclohexyl-5-[2-ethoxy-4-(1-piperazinyl)phenyl]-3-methyl-1,6-dihydro-7H-pyrazolo[4,3-d]pyrimidin-7-one] the figure was not above 1000 nM. With `COc1cc(N2CC[C@@H](O)C2)ccc1-c1nc2c(C)nn(C3CCCCC3)c2c(=O)[nH]1` [Example 270, 1-Cyclohexyl-5-{4-[(3R)-3-hydroxypyrrolidinyl]-2-methoxyphenyl}-3-methyl-1,6-dihydro-7H-pyrazolo[4,3-d]pyrimidin-7-one] the figure was not above 1000 nM; with `COc1cc(C2=CCN(Cc3ccccc3)CC2)ccc1-c1nc2c(C)nn(C3CCCCC3)c2c(=O)[nH]1` [Example 272, 5-[4-(1-Benzyl-1,2,3,6-tetrahydro-4-pyridinyl)-2-methoxyphenyl]-1-cyclohexyl-3-methyl-1,6-dihydro-7H-pyrazolo[4,3-d]pyrimidin-7-one], not above 1000 nM; with `COc1cc(C2=CCNCC2)ccc1-c1nc2c(C)nn(C3CCCCC3)c2c(=O)[nH]1` [Example 273, 1-Cyclohexyl-5-[2-methoxy-4-(1,2,3,6-tetrahydro-4-pyridinyl)phenyl]-3-methyl-1,6-dihydro-7H-pyrazolo[4,3-d]pyrimidin-7-one monohydrochloride], not above 1000 nM. As to `CCNc1ccc(-c2nc3c(C)nn(C4CCCCC4)c3c(=O)[nH]2)c(OC)c1` [Example 275, 1-Cyclohexyl-5-[4-(ethylamino)-2-methoxyphenyl]-3-methyl-1,6-dihydro-7H-pyrazolo[4,3-d]pyrimidin-7-one], the IC50 was not above 1000 nM.
